In patent US20240301499A1, “METHOD FOR IDENTIFYING HARD-TO-TREAT OSTEOSARCOMA PATIENTS AT DIAGNOSIS AND IMPROVING THEIR OUTCOME BY PROVIDING NEW THERAPY” (Institut Gustave Roussy, priority 2021, published 2024):
Read-outs that look alike come from different tables or passages of the source.

Key:
MAP-217 PT PDX model = assay: Osteosarcoma orthotopic (paratibial) PDX model MAP-217; format: in vivo, NSG mice; conditions: IP 10 mg/kg/injection daily
From the text: Experiments were validated by the CEEA26, Ethic committee (approval number APAFIS #27183-2020091414229028 v3) and carried out under conditions established by the European Community (Directive 2010/63/UE). Animals were purchased at Gustave Roussy (Villejuif, France) and maintained in the respective animal facilities following standard animal regulation, health and care, and ethical controls. Osteosarcoma PDXs were established from relapsed patients by transplantation in immunocompromised NSG mice and considered as established when tumor growth was sustained after at least two in vivo passages. […] Clinical status, tumor uptake and tumor growth will be evaluated one to 3 times a week. Paratibial tumor was detected by palpation and tumor gross appearance (caliper measurements). […] Mice were then anesthetized and bone structure alterations were analyzed by CTscan imaging. […]
Groups of 8 animals bearing the same OTS orthotopic PDX model were treated from day 14 after tumor implantation with intraperitoneal (IP) injection (volume of 10 m/kg) every day with either T0070907 (10 mg/Kg/injection) or with vehicle (saline, control group). […] Clinical status, tumor uptake and tumor growth were evaluated each two days. Paratibial tumors were detected by palpation, tumor gross apparition (caliper measurements). […]

HOS cells [1] = assay: In vitro cell viability (MTS assay), HOS; format: cell-based, human
Procedure: (§1) Parental HOS, 143B, MG-63, IOR/OS18, resistant derived HOS R/MTX and derived PPARγ shRNA or overexpressing PPARγ cell lines were seeded at 5000 cells/well, parental, Saos2, Saos-2B, IOR/OS14, resistant derived HOS R/DOXO and derived PPARγshRNA or overexpressing PPARγ lines were seeded at 10,000 cells/well in a 96-well plate in DMEM supplemented with 10% FBS for both assays.
(§2) The day after seeding, cells were incubated in the presence of a range of drug concentrations for 72 h (from 0 to 100 μmol/L for DOXO, MAF; 0 to 500 μmol/L for MTX, T0070907, Rosiglitazone (RGZ) and Troglitazone (TGZ)). Cell viability was evaluated using the CellTiter 96 Aqueous One Solution Cell Proliferation Assay (MTS assay) (Promega, Charbonnieres, France), according to the manufacturer instructions. The half-maximal inhibitory concentration (IC50) was determined using the GraphPad Prism5 software (Graphpad Software Inc., California, USA).

HOS cells [2] = assay: RNA sequencing of treated HOS cells; format: cell-based, human; conditions: T0070907 at 25 μM for 24 h
[3] = test system: 8 osteosarcoma parental cell lines; assay: In vitro cell viability (MTS assay), 72 h; format: cell-based, human
Procedure: as §1, §2

[4] = test system: 7 human osteosarcoma lines; assay: MTS cell proliferation assay, 48 and 72 h (first Example 2); format: cell-based; conditions: MTS test
Procedure: HOS, 143B, MG-63, U2OS and IOR/OS18 cell lines were seeded at 5,000 cells per well, Saos-2, Saos-2-B and IOR/OS14 cell lines were seeded at 10,000 cells per well in a 96-well plate containing a final volume of 100 μl/well and left to settle overnight in DMEM with 10% fetal calf serum.
The cells were treated with different drugs (PPARγ agonists troglitazone (TGZ) or rosiglitazone (RGZ), or PPARγ antagonist T0070907, dissolved in DMSO) at concentrations ranging from 0 μmol/l to 100 μmol/L. The control (untreated cells) get the same volume of DMSO when the cells are treated (10 μl per 1 ml). Cell viability was determined 48 and 72 hours after exposure. Old medium was removed and a solution with MTS/new medium (20 μl of MTS solution−final concentration 0.33 mg/ml) (CellTiter 96 Aqueous One Solution Cell Proliferation Assay; Promega Corporation, Charbonnieres, France) was added. A set of wells were prepared only with MTS/new medium for background subtraction at the same time. An incubation from 1 to 7 hours at 37° C. (cell line metabolism dependent) was performed follow by a colorimetric measurement at 490 nm in an automatic plate reader (Elxb808; Fisher Bioblock Scientific SAS, Illkirch, France).

In the case of O=C(Nc1ccncc1)c1cc([N+](=O)[O-])ccc1Cl [T0070907], the “delay to reach 2.5 time the initial leg volume, higher compared to control” value (MAP-217 PT PDX model) is reported as 20%, the lung metastases (MAP-217 PT PDX model; IHC human Ki67 at sacrifice) is reported as “decreased lung metastases in number and size” and the IC50 (HOS cells [1]) is reported as 25 µM. For the same compound, the “RNA sequencing: transcription programs induced” value (HOS cells [2]) was “induction of pro-apoptotic and osteoblastic differentiation programs”, the IC50 ([3]; 8 osteosarcoma parental cell lines, read-out: IC50, range over cell lines) was 9.3 to 37.4 µM and the IC50 ([3]; all 8 osteosarcoma parental cell lines, read-out: Median IC50) was 20 µM. The IC50 ([4]; read-out: IC50 (cell viability), range over cell lines) was 9 to 18 µM and the IC50 ([4]; read-out: median IC50 (cell viability)) was 20 µM.
